Experiment: in vitro
Settings: human, hek293t cells

SMILES | viability at 48 h, 25 µM
CC(C)NC(=O)C(C#N)=Cc1cccc(C(F)(F)F)c1 [9-J13, 2-cyano-N-(propan-2-yl)-3-[3-(trifluoromethyl)phenyl]prop-2-enamide] | 33.9%
Cc1cc(C=C(C#N)C(=O)Nc2nccs2)ccc1-n1cncn1 [9-J14, 2-cyano-3-[3-methyl-4-(1H-1,2,4-triazol-1-yl)phenyl]-N-(1,3-thiazol-2-yl)prop-2-enamide] | 104%
Cc1cc(-n2c(C)cc(C=C(C#N)C(=O)NC3CCCC3)c2C)no1 [9-J15, 2-cyano-N-cyclopentyl-3-[2,5-dimethyl-1-(5-methyl-1,2-oxazol-3-yl)-1H-pyrrol-3-yl]prop-2-enamide] | 91.8%
Cc1ncsc1C=C(C#N)C(=O)Nc1ccc(C(=O)N(C)C)cc1 [9-J16, 4-[2-cyano-3-(4-methyl-1,3-thiazol-5-yl)prop-2-enamido]-N,N-dimethylbenzamide] | 118%
Cc1nn(-c2ccccc2)c(Cl)c1C=C(C#N)C(=O)NC(C)C [9-J17, 3-(5-chloro-3-methyl-1-phenyl-1H-pyrazol-4-yl)-2-cyano-N-(propan-2-yl)prop-2-enamide] | 98.2%
N#CC(=Cc1ccco1)C(=O)NS(=O)(=O)N1CCc2ccccc21 [9-J18, 2-cyano-N-(2,3-dihydro-1H-indole-1-sulfonyl)-3-(furan-2-yl)prop-2-enamide] | 116%
N#CC(=Cc1ccc2c(c1)OCCO2)C(=O)NC1CCCCC1 [9-J19, 2-cyano-N-cyclohexyl-3-(2,3-dihydro-1,4-benzodioxin-6-yl)prop-2-enamide] | 118%
CC(C)NC(=O)C(C#N)=Cc1cccc(F)c1F [9-J20, 2-cyano-3-(2,3-difluorophenyl)-N-(propan-2-yl)prop-2-enamide] | 98%
Cc1cc(C=C(C#N)C(=O)Nc2ccccn2)c(C)n1CC(C)C [9-J21, 2-cyano-3-[2,5-dimethyl-1-(2-methylpropyl)-1H-pyrrol-3-yl]-N-(pyridin-2-yl)prop-2-enamide] | 87.2%
N#CC(=Cc1ccc(F)c(F)c1)C(=O)NC1CCCCC1 [9-J22, 2-cyano-N-cyclohexyl-3-(3,4-difluorophenyl)prop-2-enamide] | 101%
CC(NC(=O)C(C#N)=Cc1ccco1)c1cccnc1 (stereo not shown) [9-K03, 2-cyano-3-(furan-2-yl)-N-[1-(pyridin-3-yl)ethyl]prop-2-enamide] | 129%
N#CC(=Cc1ccc(OC(F)F)cc1)C(=O)Nc1cccnc1 [9-K04, 2-cyano-3-[4-(difluoromethoxy)phenyl]-N-(pyridin-3-yl)prop-2-enamide] | 115%
CCc1nsc(N2CCN(C(=O)C(C#N)=Cc3ccco3)CC2)n1 [9-K05, 2-[4-(3-ethyl-1,2,4-thiadiazol-5-yl)piperazine-1-carbonyl]-3-(furan-2-yl)prop-2-enenitrile] | 121%
N#CC(=Cc1c(Cl)cccc1Cl)C(=O)NCc1ccco1 [9-K06, 2-cyano-3-(2,6-dichlorophenyl)-N-[(furan-2-yl)methyl]prop-2-enamide] | 29.2%
CC(C)NC(=O)C(C#N)=Cc1ccc(Cl)cc1Cl [9-K07, 2-cyano-3-(2,4-dichlorophenyl)-N-(propan-2-yl)prop-2-enamide] | 49.5%
Cc1ccc(C=C(C#N)C(=O)Nc2ccccc2C(=O)O)s1 [9-K08, 2-[2-cyano-3-(5-methylthiophen-2-yl)prop-2-enamido]benzoic acid] | 104%
N#CC(=Cc1cccc(F)c1)C(=O)NCc1ccccc1 [9-K09, N-benzyl-2-cyano-3-(3-fluorophenyl)prop-2-enamide] | 109%

SMILES | viability at 48 h, 25 µM
N#CC(=Cc1ccc2ccccc2c1)C(=O)NC(N)=O [9-K10, {2-cyano-2-[(naphthalen-2-yl)methylidene]acetyl}urea] | 116%
COc1cc(C=C(C#N)C(=O)NC(C)C)cc(Cl)c1O [9-K11, 3-(3-chloro-4-hydroxy-5-methoxyphenyl)-2-cyano-N-(propan-2-yl)prop-2-enamide] | 115%
N#CC(=Cc1ccc(N2CCCC2)cc1)C(=O)N1CCC(C(N)=O)CC1 [9-K12, 1-(2-cyano-2-{[4-(pyrrolidin-1-yl)phenyl]methylidene}acetyl)piperidine-4-carboxamide] | 108%
COc1cc(C=C(C#N)C(N)=O)cc(OC)c1OC [9-K13, 2-cyano-3-(3,4,5-trimethoxyphenyl)prop-2-enamide] | 129%
N#CC(=Cc1cccnc1)C(=O)NCCc1ccccc1 [9-K14, 2-cyano-N-(2-phenylethyl)-3-(pyridin-3-yl)prop-2-enamide] | 89.3%
Cc1ccc(C=C(C#N)C(=O)NC2CC2)s1 [9-K15, 2-cyano-N-cyclopropyl-3-(5-methylthiophen-2-yl)prop-2-enamide] | 126%
N#CC(=Cc1ccc(-c2ccc(Cl)cc2)o1)C(=O)NC1CC1 [9-K16, 3-[5-(4-chlorophenyl)furan-2-yl]-2-cyano-N-cyclopropylprop-2-enamide] | 91%
Cc1ccc(NC(=O)C(C#N)=Cc2ccccc2OC(F)F)c(C)c1 [9-K17, 2-cyano-3-[2-(difluoromethoxy)phenyl]-N-(2,4-dimethylphenyl)prop-2-enamide] | 94.9%
CC1=C(C#N)C(=O)N(C)C(=O)C1=Cc1ccc(-c2ccccc2Cl)o1 [9-K18, 5-{[5-(2-chlorophenyl)furan-2-yl]methylidene}-1,4-dimethyl-2,6-dioxo-1,2,5,6-tetrahydropyridine-3-carbonitrile] | 126%
N#CC(=Cc1ccccc1OC(F)F)C(=O)Nc1nccs1 [9-K19, 2-cyano-3-[2-(difluoromethoxy)phenyl]-N-(1,3-thiazol-2-yl)prop-2-enamide] | 119%
N#CC(=Cc1ccc2c(c1)OCCO2)C(=O)Nc1ccc(F)cc1 [9-K20, 2-cyano-3-(2,3-dihydro-1,4-benzodioxin-6-yl)-N-(4-fluorophenyl)prop-2-enamide] | 114%
N#CC(=Cc1ccc([N+](=O)[O-])cc1)C(=O)Nc1cccc2ncccc12 [9-K21, 2-cyano-3-(4-nitrophenyl)-N-(quinolin-5-yl)prop-2-enamide] | 114%
CCOc1cc(C=C(C#N)C(=O)Nc2nccs2)cc(Cl)c1O [9-K22, 3-(3-chloro-5-ethoxy-4-hydroxyphenyl)-2-cyano-N-(1,3-thiazol-2-yl)prop-2-enamide] | 110%
COc1ccc(NC(=O)C(C#N)=Cc2cnc3c(C)cccn23)cc1 [9-L03, 2-cyano-N-(4-methoxyphenyl)-3-{8-methylimidazo[1,2-a]pyridin-3-yl}prop-2-enamide] | 111%
CCCCNC(=O)C(C#N)=Cc1c[nH]nn1 [9-L04, N-butyl-2-cyano-3-(1H-1,2,3-triazol-4-yl)prop-2-enamide] | 116%
CSc1ccc(C=C(C#N)C(=O)Nc2ccc3c(c2)OCCO3)cc1 [9-L05, 2-cyano-N-(2,3-dihydro-1,4-benzodioxin-6-yl)-3-[4-(methylsulfanyl)phenyl]prop-2-enamide] | 114%
C=CCNC(=O)C(C#N)=Cc1ccc2c(c1)OCCO2 [9-L06, 2-cyano-3-(2,3-dihydro-1,4-benzodioxin-6-yl)-N-(prop-2-en-1-yl)prop-2-enamide] | 86.7%
